Assay results taken from patent US5770603A, “Quinazoline derivatives” (Zeneca Limited, priority 1996, dated 1998).
Values joined by “and” are separate entries in the source; they are usually repeats but may differ in a detail not shown here. Equal entries are not always repeated.

Assays:
[1] = molecular target: T1, EGF receptor tyrosine kinase (Homo sapiens, UniProt P00533); assay: Test (a): in vitro inhibition of the enzyme EGF receptor tyrosine kinase (partially purified from A-431 cells); format: biochemical; conditions: example values stated as approximate
T1 construct: Receptor tyrosine kinase was obtained in partially purified form from A-431 cells; endogenous in cells; host or cells: A-431 cells (human vulval carcinoma), Triton X-100 solubilised pelleted material
Description: (a) An in vitro assay which determines the ability of a test compound to inhibit the enzyme EGF receptor tyrosine kinase. Receptor tyrosine kinase was obtained in partially purified form from A-431 cells (derived from human vulval carcinoma) by the procedures described below which are related to those described by Carpenter et al, J. Biol. Chem., 1979, 254, 4884, Cohen et al, J. Biol. Chem., 1982, 257, 1523 and by Braun et al., J. Biol. Chem., 1984, 259, 2051.
A-431 cells were grown to confluence using Dulbecco's modified Eagle's medium (DMEM) containing 5% fetal calf serum (FCS). The obtained cells were homogenised in a hypotonic borate/EDTA buffer at pH 10.1. The homogenate was centrifuged at 400 g for 10 minutes at 0°-4° C. The supernatant was centrifuged at 25,000 g for 30 minutes at 0°-4° C. The pelleted material was suspended in 30 mM Hepes buffer at pH 7.4 containing 5% glycerol, 4 mM benzamidine and 1% Triton X-100, stirred for 1 hour at 0°-4° C., and recentrifuged at 100,000 g for 1 hour at 0°-4° C. The supernatant, containing solubilised receptor tyrosine kinase, was stored in liquid nitrogen.
For test purposes 40 μl of the enzyme solution so obtained was added to a mixture of 400 μl of a mixture of 150 mM Hepes buffer at pH 7.4, 500 μM sodium orthovanadate, 0.1% Triton X-100, 10% glycerol, 200 μl water, 80 μl of 25 mM DTT and 80 μl of a mixture of 12.5 mM manganese chloride, 125 mM magnesium chloride and distilled water. There was thus obtained the test enzyme solution.
Equal volumes of this solution and a solution of epidermal growth factor (EGF; 20 μg/ml) were mixed.
[y-^32 P]ATP (3000 Ci/mM, 250 μCi) was diluted to a volume of 2 ml by the addition of a solution of ATP (100 μM) in distilled water. An equal volume of a 4 mg/ml solution of the peptide […]in a mixture of 40 mM Hepes buffer at pH 7.4, 0.1% Triton X-100 and 10% glycerol was added.
The test compound/EGF mixture solution (5 μl) was added to the test enzyme solution (10 μl) and the mixture was incubated at 0°-4° C. for 30 minutes. The ATP/peptide mixture (10 μl) was added and the mixture was incubated at 25° C. for 10 minutes. The phosphorylation reaction was terminated by the addition of 5% trichloroacetic acid (40 μl) and bovine serum albumin (BSA; 1 mg/ml, 5 μl). The mixture was allowed to stand at 4° C. for 30 minutes and then centrifuged. An aliquot (40 μl) of the supernatant was placed onto a strip of Whatman p 81 phosphocellulose paper. The strip was washed in 75 mM phosphoric acid (4×10 ml) and blotted dry. Radioactivity present in the filter paper was measured using a liquid scintillation counter (Sequence A). The reaction sequence was repeated in the absence of the EGF (Sequence B) and again in the absence of the test compound (Sequence C).
Receptor tyrosine kinase inhibition was calculated as follows: [formula]

[2] = system: human naso-pharyngeal cancer cell line KB; assay: Test (b): in vitro inhibition of EGF-stimulated growth of the human naso-pharyngeal cancer cell line KB; format: cell-based; conditions: 72 h, EGF 10 ng/ml, 3 days incubation, MTT, example values stated as approximate
Description: (b) An in vitro assay which determines the ability of a test compound to inhibit the EGF-stimulated growth of the human naso-pharyngeal cancer cell line KB.
Cell growth was determined after incubation for 3 days by the extent of metabolism of MTT tetrazolium dye to furnish a bluish colour. Cell growth was then determined in the presence of EGF (10 ng/ml) or in the presence of EGF (10 ng/ml) and a test compound at a range of concentrations. An lC50 value could then be calculated.

[3] = system: xenografts of the human vulval epidermoid carcinoma cell line A-431; assay: Test (c): in-vivo inhibition of growth of A-431 xenografts in athymic nude mice; design: species or system human (xenograft in athymic nude mice); conditions: Mus musculus, daily dosing, usually oral, tumour volume inhibition relative to untreated controls
Description: (c) An in-vivo assay in a group of athymic nude mice (strain ONU:Alpk) which determines the ability of a test compound (usually administered orally as a ball-milled suspension in 0.5% polysorbate) to inhibit the growth of xenografts of the human vulval epidermoid carcinoma cell line A-431. A-431 cells were maintained in culture in DMEM supplemented with 5% FCS nd 2 mM glutamine. Freshly cultured cells were harvested by trypsinization and injected subcutaneously (10 million cells/0.1 ml/mouse) into both flanks of a number of donor nude mice. When sufficient tumour material was available (after approximately 9 to 14 days), fragments of tumour tissue were transplanted in the flanks of recipient nude mice (test day 0). […] In some studies the dosing of the test compound was continued beyond test day 19, for example to test day 26. In each case, on the following test day the animals were killed and the final tumour volume was calculated from measurements of the length and width of the tumours. Results were calculated as a percentage inhibition of tumour volume relative to untreated controls.

[4] = system: transplanted human mammary carcinoma which expresses EGF receptor tyrosine kinase; conditions: athymic nude mice; EGF receptor tyrosine kinase expressing; Toi et al., 1990; cited from earlier work
[5] = system: carcinoma which does not express EGF receptor tyrosine kinase; conditions: carcinoma not expressing EGF receptor tyrosine kinase; Toi et al., 1990; cited from earlier work
[6] = system: EGF receptor tyrosine kinase; conditions: Fry et al., Science, 1994, 265, 1093; cited from earlier work

T1 sequence (P00533 25-1210): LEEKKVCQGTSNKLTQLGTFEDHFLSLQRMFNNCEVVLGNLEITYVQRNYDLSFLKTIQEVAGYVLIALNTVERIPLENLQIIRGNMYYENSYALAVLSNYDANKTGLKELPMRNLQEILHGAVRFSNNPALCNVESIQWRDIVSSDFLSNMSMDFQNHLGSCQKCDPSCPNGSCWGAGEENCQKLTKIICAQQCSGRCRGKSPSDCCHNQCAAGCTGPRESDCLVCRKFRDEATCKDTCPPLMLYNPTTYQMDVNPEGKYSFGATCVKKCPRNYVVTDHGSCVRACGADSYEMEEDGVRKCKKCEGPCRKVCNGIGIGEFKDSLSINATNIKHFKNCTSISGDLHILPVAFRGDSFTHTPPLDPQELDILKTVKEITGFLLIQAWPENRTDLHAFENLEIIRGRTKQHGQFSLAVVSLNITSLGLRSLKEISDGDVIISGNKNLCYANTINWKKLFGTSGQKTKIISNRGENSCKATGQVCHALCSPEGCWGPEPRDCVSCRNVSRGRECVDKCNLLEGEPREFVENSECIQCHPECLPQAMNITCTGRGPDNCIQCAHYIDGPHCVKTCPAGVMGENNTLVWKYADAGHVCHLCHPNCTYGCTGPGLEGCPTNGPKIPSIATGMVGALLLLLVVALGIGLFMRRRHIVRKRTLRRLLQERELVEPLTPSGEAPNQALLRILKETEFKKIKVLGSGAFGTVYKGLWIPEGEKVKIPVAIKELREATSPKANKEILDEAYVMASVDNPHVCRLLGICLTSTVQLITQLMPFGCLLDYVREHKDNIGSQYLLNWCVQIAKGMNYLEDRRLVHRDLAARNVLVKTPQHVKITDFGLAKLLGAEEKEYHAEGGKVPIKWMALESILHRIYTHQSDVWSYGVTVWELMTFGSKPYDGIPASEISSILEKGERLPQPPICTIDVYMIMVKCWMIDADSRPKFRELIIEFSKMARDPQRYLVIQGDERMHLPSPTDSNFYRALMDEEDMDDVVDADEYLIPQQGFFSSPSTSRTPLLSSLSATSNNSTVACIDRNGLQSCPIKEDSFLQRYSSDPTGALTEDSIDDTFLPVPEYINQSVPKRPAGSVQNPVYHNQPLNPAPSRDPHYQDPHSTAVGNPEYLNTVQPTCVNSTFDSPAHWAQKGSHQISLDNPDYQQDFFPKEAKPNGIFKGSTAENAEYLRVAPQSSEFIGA

| SMILES | IC50 [1] | IC50 [2] | other results |
| --- | --- | --- | --- |
| COc1cc2ncnc(Nc3ccc(F)c(Cl)c3)c2cc1OCCC1OCCO1 [Example 3, 4-(3'-chloro-4'-fluoroanilino)-6-[2-(1,3-dioxolan-2-yl)ethoxy]-7-methoxyquinazoline] | 0.01 µM | 0.33 µM | ED50 [3]: ~50 mg/kg |
| COc1cc2ncnc(Nc3ccc(F)c(Cl)c3)c2cc1OCC1(C)COC1 [Example 10, 4-(3'-chloro-4'-fluoroanilino)-7-methoxy-6-(3-methyloxetan-3-ylmethoxy)quinazoline] | 0.01 µM and 0.034 µM | 0.065 µM |  |
| O=CN/C=C/c1cc(O)ccc1O [erbstatin] |  |  | growth of transplanted human mammary carcinoma (in words) [4]: specifically attenuates the growth; growth of another carcinoma (in words) [5]: without effect on the growth |
| COc1cc2ncnc(Nc3ccc(F)c(Cl)c3)c2cc1OCCCC1OCCO1 [Example 4, 4-(3'-chloro-4'-fluoroanilino)-6-[3-(1,3-dioxolan-2-yl)propoxy]-7-methoxyquinazoline] | 0.04 µM | 0.14 µM |  |
| COc1cc2ncnc(Nc3cccc(Br)c3)c2cc1OC [4-(3'-bromoanilino)-6,7-dimethoxyquinazoline] |  |  | inhibitor of EGF receptor tyrosine kinase (in words) [6]: highly potent inhibitor |
| COc1cc2ncnc(Nc3ccc(F)c(Cl)c3)c2cc1OCC1OCCO1 [Example 2, 4-(3'-chloro-4'-fluoroanilino)-6-(1,3-dioxolan-2-ylmethoxy)-7-methoxyquinazoline] | 0.01 µM | 0.2 µM |  |
| COc1cc2ncnc(Nc3ccc(F)c(Cl)c3)c2cc1OCCC1OCCCO1 [Example 8, 4-(3'-chloro-4'-fluoroanilino)-6-[2-(1,3-dioxan-2-yl)ethoxy]-7-methoxyquinazoline] | 0.005 µM | 0.04 µM |  |
| COc1cc2ncnc(Nc3ccc(F)c(Cl)c3)c2cc1OCC1COCO1 (stereo not shown) [Example 5, 4-(3'-chloro-4'-fluoroanilino)-6-(1,3-dioxolan-4-ylmethoxy)-7-methoxyquinazoline] | 0.015 µM | 0.14 µM |  |
